Results: patent US20130217723A1, “Pharmaceutical Composition Combining Tenatoprazole and an Anti-Inflammatory Agent” (priority 2002, published 2013)
Where two headings read alike, the source gives them in different places.

Legend:
[1] = patients under treatment; cited from earlier work
[2] = Phase I pharmacokinetic study of oral tenatoprazole, single dose and daily dose for 7 days; type: in vivo, human (Caucasian individuals); conditions: for half-life: human, plasma, oral, depending on the dose (10-80 mg), read-out: mean elimination half-lives
Experimental: The doses tested were 10, 20, 40 and 80 mg of tenatoprazole.
In this table, the abbreviations employed have the following meanings: • Cmax maximum concentration • Tmax time required to attain maximum concentration • T1/2 elimination half-life • AUC0-t area under the curve, between time 0 and the last measurable concentration.

Cc1ccc(-c2cc(C(F)(F)F)nn2-c2ccc(S(N)(=O)=O)cc2)cc1 [celecoxib]
percentage of minor disorders observed in patients: dyspeptic symptoms [1]: 4.8% | percentage of minor disorders observed in patients: gastric pain [1]: 4.8% | percentage of minor disorders observed in patients: nausea [1]: 2.4%

COc1ccc2[nH]c([S+]([O-])Cc3ncc(C)c(OC)c3C)nc2n1 (stereo not shown) [tenatoprazole, 5-methoxy-2-[[(4-methoxy-3,5-dimethyl-2-pyridyl)methyl]sulfinyl]imidazo[4,5-b]pyridine]
plasma half-life/pump regeneration time ratio ([2]; compared with other proton pump inhibitors): notably higher than that seen with other proton pump inhibitors | half-life ([2]; after a single dose): 5 to 6 h | half-life ([2]; after administration for seven days): 5 to 9.5 h | Cmax, AUC0-t and AUC0-inf values versus dose ([2]; single or repeated administration, AUC0-inf calculated by extrapolation): increased in a linear fashion
